Source: patent US10137185B2, “PAP peptide analogues” (THE NOTTINGHAM TRENT UNIVERSITY, priority 2014, dated 2018)

What was measured:
[1] = tested on: HLA-A2; details: WO 2005/090560; cited from earlier work
[2] = tested on: splenocytes; test: Peptide immunisation of C57Bl/6 mice, ex vivo IFNγ ELISPOT of splenocytes; assay type: in vivo; details: for number of spots generated by splenocytes from immunised animals: 100 μg 15-mer day 1, PAP-115-123 day 14, 1×10^6 splenocytes with 1 μg 9-mer peptide, 3 mice
Method: FIG. 9. Comparison of IFNγ responses induced by PAP-115-123 peptide and PAP-115-123 analogue peptide immunisation (A) and to varying PAP-115-123 peptide/analogue peptide concentrations (B), as determined using an ex vivo ELISPOT. C57Bl/6 mice in the PAP-115-123 peptide immunisation group were immunised with 100 μg of PAP-114-128 on day 1 and 75 μg of PAP-115-123 on day 14. C57Bl/6 mice in the PAP-115-123 analogue peptide immunisation group were immunised with 100 μg of PAP-114-128 analogue peptide on day 1 and 75 μg of PAP-115-123 on day 14. A week after the final immunisation, spleens were isolated for the ex vivo ELISPOT assay. For the assay, 1×10^6 splenocytes were co-cultured with 1 μg of PAP-115-123 peptide or PAP-115-123 analogue peptide. Splenocytes with no added peptide were used as control. Comparisons of means (±SEM) between groups (splenocytes pulsed with PAP-115-123 peptide or PAP-115-123 analogue peptide) are made with an unpaired t test. The experiment was performed with three mice per group.
The PAP-115-123 peptide which was obtained by altering the second amino acid of the sequence from alanine to […] was predicted to have a higher HLA-2 binding score by the syfpeithi database. The binding score of PAP-115-123 epitope (SAMTNLAAL) (SEQ ID NO. 13) to HLA-A2.1 was 24 and that of the analogue peptide (SLMTNLAAL) (SEQ ID NO. 8) was 30. The immunogenicity of PAP-115-123 epitope and its analogue epitope was assessed by immunising syngeneic C57Bl/6 mice with these peptides. C57Bl/6 mice were immunised with 100 μg of PAP-114-128 on day 1 and […] of PAP-115-123 on day 14 or 100 μg of PAP-114-128 analogue peptide on day 1 and […] of PAP-115-123 on day 14. A week after the final immunisation spleens were isolated for the ex vivo ELISPOT assay. For this, 1×10^6 splenocytes were co-cultured with 1 μg of PAP-115-123 peptide or PAP-115-123 analogue peptide. Splenocytes with no added peptide were used as control. A 2-fold higher IFNγ response by splenocytes from animals immunised with the PAP-114-128 analogue peptide was observed (FIG. 9A). The number of spots in generated by splenocytes from PAP-114-128 immunised animals was 280, whereas the number of spots generated by splenocytes from PAP-114-128 analogue immunised animals was 590. Comparisons of means (±SEM) between groups (splenocytes pulsed with PAP-114-128 peptide or PAP-114-128 analogue peptide) were performed using the unpaired t test, and there were 3 animals in each group. Peptide-specific IFNγ responses generated by splenocytes that had been pulsed with varying concentrations (10, 1, 0.1, 0.01, 0.001 and 0.0001 mg/ml) of PAP-15-123 epitope or analogue epitope were also evaluated.

[3] = tested on: TRAMP-C1 cells; test: Ex vivo IFNγ ELISPOT of splenocytes of immunised mice co-cultured with TRAMP-C1 or MC38 cells; assay type: in vivo, C57Bl/6 mice
Method: FIG. 10. Comparison of IFNγ responses generated by splenocytes from mice that have been immunised with PAP-115-123 analogue peptide, and which have been co-cultured with TRAMP-C1 cells and MC38 cells, as determined using an ex vivo ELISPOT. C57Bl/6 mice were immunised with 100 μg of PAP-114-128 analogue peptide on day 1 and 75 μg of PAP-115-123 on day 14. Splenocytes were isolated for the ex vivo ELISPOT assay a week after the final immunisation. For the assay, 1×10^6 splenocytes were co-cultured with 1×10^5 TRAMP-C1 ‘stimulator’ cells. Control wells received 1×10^5 MC38 cells as stimulator cells. Comparisons of means (±SEM) between groups (splenocytes pulsed with TRAMP-C1 or MC38) are made using an unpaired t test. The experiment was performed with three mice per group.
To assess whether the T cells generated following PAP-114-128 analogue peptide immunisation could recognise naturally processed PAP-115-123 epitopes, the IFNγ response of splenocytes from the immunised mice that had been co-cultured with TRAMP-C1 cells (that naturally express PAP) was assessed using the ELISPOT. For this, 1×10^6 splenocytes were co-cultured with 1×10^5 TRAMP-C1 cells as stimulator cells. […] The number of spots generated by co-culture splenocytes with TRAMP-C1 cells was 650, whereas and number of spots obtained when using MC38 cells as stimulators was 100. The experiment was performed with three mice per group.

[4] = tested on: splenocytes; test: Peptide immunisation of HHDII/DRI mice, ex vivo IFNγ ELISPOT of splenocytes; assay type: in vivo
Method: FIG. 11. Comparison of IFNγ responses generated by splenocytes isolated from HHDII/DRI mice that have been immunised with PAP-114-128 peptide and PAP-114-128 analogue peptide, as determined using an ex vivo ELISPOT. HHDII/DRI mice were immunised with 100 μg of PAP-114-128 on day 1 and 75 μg of PAP-115-123 on day 14, or 100 μg of PAP-114-128 analogue peptide on day 1 and 75 μg of PAP-115-123 on day 14. Splenocytes were isolated for the ex vivo ELISPOT assay a week after the final immunisation. For the assay, 1×10^6 splenocytes were co-cultured with 1 μg of class I PAP-115-123 peptide or PAP-115-123 analogue peptide or 10 μg of class II PAP-114-128 peptide or PAP-114-128 analogue peptide. Splenocytes with no added peptide were used as control. Comparisons of means (±SEM) between groups (splenocytes pulsed with class I/class II peptide or class I/class II analogue peptide) are made using an unpaired t test. The experiment was performed with three mice per group.
The immunogenic efficiencies of the PAP-115-123 epitope peptide and the PAP-115-123 analogue peptides were further compared using transgenic HHDII/DRI mice. For this, HHDII/DRI mice in the PAP-114-128 peptide immunisation group were immunised with 100 μg of PAP-114-128 on day 1 and 75 μg of PAP-115-123 on day 14. HHDII/DRI mice in the PAP-114-128 analogue peptide immunisation group was immunised with 100 μg of PAP-114-128 analogue peptide on day 1 and 75 μg of PAP-115-123 on day 14. A week after the final immunisation spleens were isolated for the ex vivo ELISPOT assay. For the assay, 1×10^6 splenocytes were co-cultured with 1 μg of class I PAP-115-123 peptide or PAP-115-123 analogue peptide or 10 μg of class II PAP-114-128 peptide or PAP-114-128 analogue peptide. Splenocytes with no added peptide were used as control. […] The experiment was performed with three mice per group.

[5] = tested on: PBMCs from HLA-A2 positive patients with prostate cancer and individuals with benign disease; test: IFNγ ELISPOT of PBMCs from prostate cancer patients and individuals with benign disease after peptide re-stimulation; assay type: cell-based, human; details: for peptide-specific IFNγ response in samples from individuals with benign disease: 10 benign individuals
Method: FIG. 3. IFNγ response of peripheral blood mononuclear cells (PBMCs) isolated from patients with prostate cancer and individuals with benign disease after re-stimulation with PAP-115-123 epitope using an ELISPOT assay. Cryopreserved PBMCs from ten HLA-A2 positive prostate cancer patients and ten benign candidates were compared. The PBMCs were cultured in vitro with 5 μg of PAP-114-128 epitope for 7 days. The cells were then washed and rested overnight and 4×10^4 cells were added to each well of an ELISPOT plate. PAP-115-123 epitope peptide (1 μg) was added per well and cells cultured for 48 hours. The plates were then washed according to the manufacturer's protocol. PBMCs with no added peptide were used as control. Comparisons of means (±SEM) between groups (cells pulsed with PAP-115-123 or no peptide) are made using an unpaired t test.
FIG. 12. IFNγ responses generated by PBMCs isolated from 10 patients with prostate cancer and 10 individuals with benign disease after re-stimulation with the PAP-115-123 analogue epitope peptide, as determined using an ELISPOT assay. PBMCs were cultured in vitro with 5 μg of PAP-114-128 analogue epitope for 7 days. The cells were then washed and rested overnight, at which time and 4×10^4 cells were added to each well of an ELISPOT plate. PAP-115-123 analogue epitope peptide (1 μg) was added to each well and the cells were cultured for 48 hours. The plates were then washed according to the manufacturer's protocol. PBMCs cultured with no added peptide were used as the control. Comparisons of means (±SEM) between groups (PBMCs pulsed with PAP-115-123 analogue or no peptide) are made using an unpaired t test.
To determine the presence of circulating T cells specific for PAP-115-123 in humans, PBMCs from HLA-A2 positive patients with prostate cancer and individuals with benign disease were used. Cryopreserved PBMCs were thawed, washed and restimulated for 7 days with […] epitope peptide. The cells were then washed and rested overnight, at which time 4×10^4 cells were added to each well of an ELISPOT plate. PAP-115-123 epitope peptide (1 μg) was added to each well and the cells cultured for 48 hours. The plates were developed according to the manufacturer's instructions. PBMCs cultured with no peptide were used as controls. […] The number of IFNγ spots generated by PBMCs from one of the patients was as high as 220 (vs 60 spots for the control). The number of spots generated by PBMCs for the other 6 patients with prostate cancer ranged between 50 and 100 (vs 10-20 in controls). Although some of the PBMCs from individuals with benign disease generated 50-100 spots, the number of spots in the control wells was also high.
To determine the presence of circulating T cells specific for PAP-115-123 analogue peptide in humans, PBMCs from HLA-A2 positive patients with prostate cancer and individuals with benign disease were used. Cryopreserved PBMCs were thawed, washed and restimulated for 7 days with […] analogue epitope. The cells were then washed and rested overnight, at which time 4×10^4 cells were added to each well of an ELISPOT plate. 1 μg of PAP-115-123 analogue epitope was added to each well and cells were cultured for 48 hours. The plates were developed as per the manufacturer's instructions. PBMCs cultured with no peptide were used as control. […] The number of IFNγ spots in one of the patients was as high as 180 spots compared to control (54 spots). Similar response was also obtained when PBMCs were co-cultured with PAP-115-123 epitope (FIG. 3). The number of spots generated by PBMCs from the 6 patients with prostate cancer patients ranged between 50 and 100 (vs 10-20 in control wells). Although some of the samples from individuals with benign disease generated 50-100 spots, the number of spots in the control wells was also high.

ILLWQPIPV (PAP with Ala to Leu change at position 115) [PAP 135]
binding to HLA-A2 [1]: strong binding

MSLMTNLAALFPPEG (PAP with A-L mutation at position 3 of peptide) [PAP-114-128 analogue peptide]
number of spots generated by splenocytes from immunised animals [2]: 590 spots | fold higher IFNγ response vs PAP-114-128 immunisation ([2]; C57Bl/6, FIG. 9A): 2 fold | immune response on the basis of the IFNγ response, compared to immunisation with PAP-114-128 ([2]; C57Bl/6 mice, discussion): significantly more potent | IFNγ response of splenocytes pulsed with varying peptide concentrations vs native peptide group ([2]; peptide concentrations of 1, 0.1, 0.01 and 0.001 mg/ml, p<0.05, FIG. 9B): significantly higher | number of spots, MC38 cells as stimulators ([3]; 1×10^5 MC38 cells (do not express PAP)): 100 spots | number of spots, splenocytes co-cultured with TRAMP-C1 cells ([3]; 1×10^6 splenocytes, 1×10^5 TRAMP-C1 cells (naturally express PAP)): 650 spots | lysis of TRAMP-C1 cells by T cells generated in C57Bl/6 mice ([3]; discussion): able to lyse TRAMP-C1 cells | IFNγ response with TRAMP-C1 vs MC38 cells ([3]; unpaired t-test, p<0.05): Significantly higher | immune response on the basis of the IFNγ response, compared to immunisation with PAP-114-128 ([4]; discussion): significantly more potent

PAP-114-128: immunogenic class II PAP epitope that incorporates class I PAP-115-123 (MSAMTNLAALFPPEG; UniProt P15309 114-128, looked up, fragment)
number of spots generated by splenocytes from immunised animals [2]: 280 spots | IFNγ response of splenocytes co-cultured with class II epitope ([4]; 10 μg class II peptide): No significant IFNγ response

SLMTNLAAL (PAP with A-L mutation at position 2 of peptide) [PAP-115-123 analogue peptide, 9-mer PAP analogue with alanine changed to leucine]
number of spots, other 6 patients with prostate cancer ([5]; 1 μg peptide, 4×10^4 cells per well, 10-20 in controls): 50-100 spots | number of spots, some PBMCs from individuals with benign disease ([5]; 1 μg peptide, spots in control wells also high): 50-100 spots | peptide-specific IFNγ response in samples from individuals with benign disease ([5]; 1 μg peptide, listed as PAP115-123 analogue peptide): not responsive | peptide-specific IFNγ response in samples from individuals with benign disease ([5]; 1 μg peptide, listed as PAP-115-123 analogue): no PAP-115-123 analogue specific IFNγ response | responsiveness of PBMCs from patients with prostate cancer ([5]; discussion): greater | PBMC samples from patients with prostate cancer with peptide-specific IFNγ response ([5]; of 10 samples, 7 days re-stimulation with the 15-mer, then 1 μg peptide, 48 hours, vs no peptide): 7 | number of IFNγ spots, highest patient ([5]; one prostate cancer patient, 1 μg peptide, 4×10^4 cells per well, 48 hours): 180 spots | IFNγ response of splenocytes co-cultured with class I PAP115-123 and PAP-115-123 analogue peptide epitopes ([4]; 1 μg class I peptide, vs native peptide group, p<0.05): significantly higher
